# Target: purified human Factor XIa (Homo sapiens (Human), UniProt P03951)
# Assay: Factor XIa Assay
# Assay type: biochemical
# Details: purified human Factor XIa 40 pM; substrate Z-Gly-Pro-Arg-AFC 100 μM; 50 mM HEPES pH 7.4; read-out: Human FXIa Ki
# Experimental: The effectiveness of a compound of the present invention as an inhibitor of Coagulation Factor XIa can be determined using a relevant purified serine protease, and an appropriate synthetic substrate. The rate of hydrolysis of the chromogenic or fluorogenic substrate by the relevant serine protease was measured both in the absence and presence of compounds of the present invention. Assays were conducted at rt or at 37° C. […] A decrease in the rate of fluorescence change in the presence of inhibitor is indicative of enzyme inhibition. Such methods are known to one skilled in the art. The results of this assay are expressed as the inhibitory constant, Ki.
# Factor XIa determinations were made in 50 mM HEPES buffer at pH 7.4 containing 150 mM NaCl, 5 mM CaCl2, and 0.1% PEG 8000 (polyethylene glycol; JT Baker or Fisher Scientific). Determinations were made using purified human Factor XIa at a final concentration of 40 pM (Sekisui Diagnostics) and he synthetic substrate, Z-Gly-Pro-Arg-AFC, TFA salt (Sigma #C0980) at a concentration of 100 μM.
# Times required to achieve equilibration between enzyme and inhibitor were determined in control experiments. Initial velocities of product formation in the absence (Vo) or presence of inhibitor (Vi) were measured. Assuming competitive inhibition, and that unity is negligible compared Km/[S], [I]/e, and [I]/e (where [S], [I], and e respectively represent the total concentrations, of substrate, inhibitor and enzyme), the equilibrium constant (Ki) for dissociation of the inhibitor from the enzyme can be obtained from the dependence of Vo/Vi on [I] shown in the following equation.
# Sequence of purified human Factor XIa (P03951 388-625): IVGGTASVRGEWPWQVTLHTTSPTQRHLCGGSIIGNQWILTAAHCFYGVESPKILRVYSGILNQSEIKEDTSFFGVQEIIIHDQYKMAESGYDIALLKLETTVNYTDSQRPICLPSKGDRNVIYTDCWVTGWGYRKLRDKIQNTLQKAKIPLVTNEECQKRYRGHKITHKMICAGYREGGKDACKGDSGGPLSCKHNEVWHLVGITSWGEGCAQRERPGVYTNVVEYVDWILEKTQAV
# Sequence of purified human Factor XIa (P03951 19-387 partner): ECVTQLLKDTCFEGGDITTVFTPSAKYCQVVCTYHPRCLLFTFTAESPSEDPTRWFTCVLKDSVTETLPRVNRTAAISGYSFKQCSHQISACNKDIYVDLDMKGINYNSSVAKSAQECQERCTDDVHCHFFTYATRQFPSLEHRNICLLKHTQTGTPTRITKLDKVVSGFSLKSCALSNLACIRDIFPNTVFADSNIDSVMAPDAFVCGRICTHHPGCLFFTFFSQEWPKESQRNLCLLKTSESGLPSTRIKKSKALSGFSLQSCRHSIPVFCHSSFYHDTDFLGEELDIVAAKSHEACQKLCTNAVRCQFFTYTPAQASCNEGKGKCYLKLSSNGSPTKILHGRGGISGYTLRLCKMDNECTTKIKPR
row,Structure (SMILES),Ki [nM]
1,"COC(=O)Nc1ccc2c(c1)NC(=O)CCCCC(c1ccc(-c3c(F)ccc(Cl)c3F)cn1)c1cc-2ncn1 (stereo not drawn) [Example 64, methyl (9-(5-(3-chloro-2,6-difluorophenyl)pyridin-2-yl)-4-oxo-3-aza-1(4,6)-pyrimidina-2(1,2)-benzenacyclononaphane-2^4-yl)carbamate]",164
2,"O=C1CCCC[C@@H](c2ccc(-c3cc(Cl)ccc3-n3cnnn3)cn2)c2cccc(c2)-c2cc(F)ccc2N1 [Example 1-b, (R)-9-(5-(5-Chloro-2-(1H-tetrazol-1-yl)phenyl)pyridin-2-yl)-2^5-fluoro-3-aza-1(1,3),2(1,2)-dibenzenacyclononaphan-4-one]",504
3,"C[C@@H]1CCC[C@@H](c2ccc(-c3cc(Cl)ccc3-n3cc(Cl)nn3)c[n+]2[O-])c2cccc(c2)-c2c(cnn2C(F)F)NC1=O (single isomer, unassigned) [Example 166-b]",195
4,"COC(=O)Nc1ccc2c(c1)NC(=O)C(C)CCCC(c1ccc(-c3c(F)ccc(Cl)c3F)c[n+]1[O-])c1cccc-2c1 (single isomer, unassigned) [Example 50-d, 5-(3-chloro-2,6-difluorophenyl)-2-(2^4-((methoxycarbonyl)amino)-5-methyl-4-oxo-3-aza-1(1,3),2(1,2)-dinenzenacyclononaphane-9-yl)pyridine 1-oxide]",209
5,"CCc1[nH]c2nc1-c1ccc(NC(=O)OC)cc1NC(=O)CCCC[C@@H]2c1ccc(-c2c(-n3cc(C(F)(F)F)cn3)ccc(Cl)c2F)c[n+]1[O-] (single isomer, unassigned) [Example 136]",168
6,"COC(=O)Nc1ccc2c(c1)NC(=O)CCCCC(c1ccc(-c3c(F)ccc(Cl)c3F)cn1)c1cc(F)c(F)c-2c1 (stereo not drawn) [Example 55, methyl (9-(5-(3-chloro-2,6-difluorophenyl)pyridin-2-yl)-1^5,1^6-difluoro-4-oxo-3-aza-1(1,3),2(1,2)-dibenzenacyclononaphane-2^4-yl)carbamate]",> 875
7,"COC(=O)Nc1ccc2c(c1)NC(=O)CCCCC(c1ccc(-c3c(F)ccc(Cl)c3F)cn1)c1cc-2ncc1F (stereo not drawn) [Example 58, methyl (9-(5-(3-chloro-2,6-difluorophenyl)pyridin-2-yl)-1^5-fluoro-4-oxo-3-aza-1(2,4)-pyridina-2(1,2)-benzenacyclononaphane-2^4-yl)carbamate]",167
8,"COC(=O)Nc1ccc2c(c1)NC(=O)CCCCC(c1ccc(-c3c(F)ccc(Cl)c3F)cn1)c1cc-2c(F)cn1 (stereo not drawn) [Example 60, methyl (9-(5-(3-chloro-2,6-difluorophenyl)pyridin-2-yl)-1^5-fluoro-4-oxo-3-aza-1(4,2)-pyridina-2(1,2)-benzenacyclononaphane-2^4-yl)carbamate]",342
9,"COC(=O)Nc1cc(F)c2c(c1)NC(=O)C(C)CCCC(c1ccc(-c3c(F)ccc(Cl)c3F)c[n+]1[O-])c1cccc-2c1 (single isomer, unassigned) [Example 85-a, 5-(3-Chloro-2,6-difluorophenyl)-2-(2^6-fluoro-2^4-((methoxycarbonyl)amino)-5-methyl-4-oxo-3-aza-1(1,3),2(1,2)-dibenzenacyclononaphane-9-yl)pyridine 1-oxide]",> 875

# The next lines start with the values.
row,Ki [nM],Structure (SMILES)
1,0.17,"CCOC(=O)Nc1ccc2c(c1)NC(=O)CCCC[C@H](c1ccc(-c3c(F)ccc(Cl)c3F)c[n+]1[O-])c1nc-2c(C)[nH]1 (single isomer, unassigned) [Example 134]"
2,0.55,"COC(=O)Nc1ccc2c(c1)NC(=O)CCCC[C@H](c1ccc(-c3c(F)ccc(Cl)c3F)c[n+]1[O-])c1cc(F)cc-2c1 (single isomer, unassigned) [Example 67]"
3,2.54,"O=C1CCCCC(c2ccc(-c3c(F)ccc(Cl)c3F)c[n+]2[O-])c2nc(c[nH]2)-c2cc(C(=O)O)ccc2N1 (single isomer, unassigned) [Example 106-a, (Z)-2-(2^5-carboxy-4-oxo-1^1H-3-aza-1(4,2)-imidazola-2(1,2) -benzenacyclononaphane-9-yl)-5-(3-chloro-2,6-difluorophenyl)pyridine 1-oxide]"
4,33,"COC(=O)Nc1ccc2c(c1)NC(=O)CCCCC(c1ccc(-c3c(F)ccc(Cl)c3F)cn1)c1cc-2ccn1 (stereo not drawn) [Example 62, methyl (9-(5-(3-chloro-2,6-difluorophenyl)pyridin-2-yl)-4-oxo-3-aza-1(4,2)-pyridina-2(1,2)-benzenacyclononaphane-2^4-yl)carbamate]"
5,8.9,"O=C1CCCCC(c2ccc(-c3c(-n4cnnn4)ccc(Cl)c3F)cn2)c2cc(ncc2F)-c2cc(F)ccc2N1 (stereo not drawn) [Example 59, 9-(5-(3-chloro-2-fluoro-6-(1h-tetrazol-1-yl)phenyl)pyridin-2-yl)-1^5,2^5-difluoro-3-aza-1(2,4)-pyridina-2(1,2)-benzenacyclononaphan-4-one]"
6,46,"O=C1CCCCC(O)(c2ccc(-c3cc(Cl)ccc3-n3cnnn3)c[n+]2[O-])c2nc(c[nH]2)-c2cc(F)ccc2N1 (single isomer, unassigned) [Example 107-a, (Z)-5-(5-Chloro-2-(1H-tetrazol-1-yl)phenyl)-2-(2^5-fluoro-9-hydroxy-4-oxo-1^1H-3-aza-1(4,2)-imidazola-2(1,2)-benzenacyclononaphane-9-yl)pyridine 1-oxide]"
7,40,"COC(=O)Nc1ccc2c(c1)NC(=O)CCCC[C@H](c1ccc(-c3ccccc3-n3cc(C)cn3)c[n+]1[O-])c1nc-2c(C)[nH]1 (single isomer, unassigned) [Example 140]"
8,115,"COC(=O)Nc1ccc2c(c1)NC(=O)C(C)CCCC(c1ccc(-c3c(F)ccc(Cl)c3F)c[n+]1[O-])c1ccc(F)c-2c1 (single isomer, unassigned) [Example 86-c, 5-(3-Chloro-2,6-difluorophenyl)-2-(1^6-fluoro-2^4-((methoxycarbonyl)amino)-5-methyl-4-oxo-3-aza-1(1,3),2(1,2) -dibenzenacyclononaphane-9-yl)pyridine 1-oxide]"
9,83.1,"O=C1CCCC[C@@H](c2ccc(-c3cc(Cl)ccc3-n3cnnn3)c[n+]2[O-])c2cccc(c2)-c2cc(F)ccc2N1 [Example 2-b, (R) 5-(5-chloro-2-(1H-tetrazol-1-yl)phenyl)-2-(2^5-fluoro-4-oxo-3-aza-1(1,3),2(1,2)-dibenzenacyclononaphane-9-yl)pyridine 1-oxide]"
10,47.8,"O=C(C1CCCCC(c2ccc(-c3cc(Cl)ccc3-n3cnnn3)c[n+]2[O-])c2cccc(c2)-c2cc(F)ccc2N1)N1CCCC1 (single isomer, unassigned) [Example 79-a, 5-(5-Chloro-2-(1H-tetrazol-1-yl)phenyl)-2-(2^5-fluoro-4-(pyrrolidine-1-carbonyl)-3-aza-1(1,3),2(1,2)-dibenzenacyclononaphane-9-yl)pyridine 1-oxide]"
11,18.6,"COC(=O)Nc1ccc2c(c1)NC(=O)[C@H](C)CCC[C@@H](c1ccc(-c3c(F)cccc3F)c[n+]1[O-])c1nc-2c(C)[nH]1 (single isomer, unassigned) [Example 143-d]"
12,160,"COC(=O)Nc1cc(F)c2c(c1)NC(=O)C(C)CCCC(c1ccc(-c3c(F)ccc(Cl)c3F)c[n+]1[O-])c1cccc-2c1 (single isomer, unassigned) [Example 85-d, 5-(3-Chloro-2,6-difluorophenyl)-2-(2^6-fluoro-2^4-((methoxycarbonyl)amino)-5-methyl-4-oxo-3-aza-1(1,3),2(1,2)-dibenzenacyclononaphane-9-yl)pyridine 1-oxide]"

# Source: patent US10214512B2, “Factor XIA inhibitors” (MERCK SHARP & DOHME CORP., priority 2015, dated 2019)
